Earlier results as cited in patent US20080108695A1, “Method of Treating Asthma, Allergic Rhinitis, and Skin Disorders” (Alcon Manufacturing Ltd., priority 2006, published 2008).

Tests used:
[1] = tested on: neutrophils; conditions: potency compared with lipoxin A4; literature report of Lee et al.
[2] = target: T1, cysLT1 (Homo sapiens, UniProt Q9Y271); conditions: high affinity receptor for LTD4; background statement
T1 sequence (Q9Y271 1-337): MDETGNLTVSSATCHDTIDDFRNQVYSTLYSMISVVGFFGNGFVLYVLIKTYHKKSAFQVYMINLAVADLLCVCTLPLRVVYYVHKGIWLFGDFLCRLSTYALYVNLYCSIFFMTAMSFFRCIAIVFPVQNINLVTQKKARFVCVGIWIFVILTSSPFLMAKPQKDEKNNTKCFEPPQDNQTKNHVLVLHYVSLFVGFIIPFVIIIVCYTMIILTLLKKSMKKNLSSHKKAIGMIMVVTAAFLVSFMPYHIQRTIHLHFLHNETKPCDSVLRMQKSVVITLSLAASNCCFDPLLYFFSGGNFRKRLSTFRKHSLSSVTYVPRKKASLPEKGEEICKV

[3] = target: T2, ALXR (formyl peptide receptor FPRL-1) (Homo sapiens, UniProt P25090); conditions: lipoxin A4 cognate receptor; background statement
T2 sequence (P25090 1-351): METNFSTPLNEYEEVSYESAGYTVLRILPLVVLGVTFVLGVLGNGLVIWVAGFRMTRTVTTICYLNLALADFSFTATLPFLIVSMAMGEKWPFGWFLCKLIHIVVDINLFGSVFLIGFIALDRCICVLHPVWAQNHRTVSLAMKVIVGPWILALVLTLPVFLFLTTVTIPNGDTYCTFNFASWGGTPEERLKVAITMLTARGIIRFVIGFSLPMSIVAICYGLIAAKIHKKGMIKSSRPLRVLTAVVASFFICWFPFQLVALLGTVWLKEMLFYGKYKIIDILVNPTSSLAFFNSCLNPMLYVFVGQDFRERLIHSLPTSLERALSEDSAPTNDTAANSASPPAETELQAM

Row | Structure (SMILES) | inhibition of LTB4-induced chemotaxis of neutrophils [1] | binding affinity for cysLT1 [2] | binding affinity for ALXR [3]
1 | COC(=O)CCC[C@H](O)[C@H](O)CO [Compound 1] | as potently as lipoxin A4 | – | –
2 | CCCCC[C@H](O)[C@H](O)CO [Compound 2] | as potently as lipoxin A4 | – | –
3 | CCCCC[C@H](O)/C=C/C=C\C=C\C=C\[C@@H](O)[C@@H](O)CCCC(=O)O [Lipoxin A4] | – | nM affinity | nM affinity
